In patent publication US20110178052A1, “9-ALPHA ESTRATRIENE DERIVATIVES AS ER-BETA SELECTIVE LIGANDS FOR THE PREVENTION AND TREATMENT OF INTESTINAL CANCER” (Bayer Schering Pharma Aktiengesellschaft, priority 2008, published 2011):
“Also recorded” adds a separate entry of the source.

Legend:
Type in all cases: in vivo, rat
PCNA [1] = test: Western Blot analysis of PCNA in ileal mucosa; conditions: for PCNA expression of intestinal mucosa cells, Western Blot densitometric evaluation: OVX rats, s.c., 3 weeks, E2 4 μg, GEN 10 mg, ALPHA 10 μg, BETA I 100 μg kg-1 b.wt d-1
Method: (§1) Post pubertal animals were ovariectomized (OVX) at the age of three months and weighing 200-220 g. After 14 days of endogenous hormonal decline the animals were treated with the test compounds or vehicle for three weeks. The animals were randomly allocated to treatment and vehicle groups (n=6). E2 (4 μg kg-1 b.wt d-1), GEN (10 mg kg-1 b.wt d-1), ALPHA (10 μg kg-1 b.wt d-1), BETA 1 (100 μg kg-1 b.wt d-1), BETA II (5-15-50 μg kg-1 b.wt d-1) and ICI (3 mg kg-1 b.wt d-1) were dissolved in dimethylsulfoxide (DMSO) (200 μl/KG b. wt/d) and corn oil (800 μl/KG b. wt/d) for s.c. administration.
(§2) Ileal mucosa and rectal colon were dissected from the animals and immediately stored in liquid nitrogen. Pooled frozen tissue (n=6 animals per group) was powdered and homogenized in a buffer (623.5 nM Tris pH 8 EDTA) containing enzyme inhibitors (5 mg/ml aprotonin, 5 mg/ml leupeptin, 1 mg/ml pepstatin-A, 5 mg/ml antipain, 100 mM pefac in 0.5 M EDTA, pH 8). Protein concentrations were determined by the method of Lowry (Dc Protein Assay, Bio-Rad). Equal amounts of sample (40 μg protein) were loaded on a Protean II ready Gel (Bio-Rad).
(§3) After electrophoresis and separation, samples were transferred onto nitrocellulose membranes and blocked with 5% BSA in Phosphate (100 mM)-buffered saline solution (pH 7.4) at room temperature for 2 hours. The immobilized proteins were quantitatively detected using specific antibodies for actin and GAPDH (A5060 and G8795, Sigma-Aldrich, Steinheim, Germany), PCNA Clone PC 10 (Dako, Glostrup, Denmark), M30 Cytodeath (ALX-804-590, Alexis, San Diego, Calif., USA) and active caspase-3 (557035, BD Pharmingen, Heidelberg, Germany).
(§4) Polyclonal Swine Anti-Rabbit Immunglobulins/HRP and Polyclonal Rabbit Anti-Mouse Immunglobulins/HRP (P0217 and P0260, Dako, Glostrup, Denmark) were used as species-specific HRP-conjugated secondary antibodies.
(§5) Blot signals were visualized by the chemoluminescent POD-Substrate (Lumi-Light Plus, Roche Diagnostics, Mannheim, Germany) and a Fluorchem Luminescent Imager (Alpha Innotech, CA, USA).
(§6) The protein bands were quantified by densitometry using ImageJ 1.38. To account for in homogenous protein loading of the slots we calculated the ratio of […] (PCNA, M30, active caspase-3).

PCNA [2] = test: Immunohistochemical staining of PCNA in ileal mucosa cells; conditions: OVX rats, s.c., 3 weeks; E2 4 μg, GEN 10 mg, ALPHA 10 μg, BETA I 100 μg kg-1 b.wt d-1
Method: as §1
(§7) Animals were sacrificed by decapitation after light anesthesia with CO2 inhalation. Uteri and intestinal tissues were prepared free of fat and were fixed in 4% formalin (for immunohistochemical analysis) and liquid nitrogen (for molecular biology). The uterine wet weights were determined.
(§8) Formalin-fixed intestinal samples were embedded in paraffin, sliced with a microtome (7 μm sections). After deparaffinization, antigen retrieval was performed in an incubator for 20 h at 60° C. in 0.01 M citrate buffer pH 6.0.
Subsequently, endogenous peroxidases were blocked for 20 min. with 3% hydrogen peroxide and the slides were covered with a 0,25% Triton X-100 solution for 10 min.
The primary antibody, PCNA Clone PC10 (Dako, Glostrup, Denmark) was applied at dilutions of 1:100, respectively.
After 1 h incubation with the primary antibodies, samples were incubated with the secondary antibody: Polyclonal Goat Anti-Mouse Immunglobulins/Biotinylated (Dako, Glostrup, Denmark).
Afterwards the sections were covered with Streptavidin-biotinylated Horseradish Peroxidase Complex (GE Healthcare, Little Chalfont Buckinghamshire, UK) at a dilution of 1:400. The samples were developed with DAB for 10 min. For negative controls, slides were immunostained in the absence of the primary antibody.
Quantitative analysis was performed in complete crypts of normal mucosa. Brown nuclear staining was indicative of a positive PCNA signal.

OVX rats = test: Uterine wet weights of ovariectomized rats after 3 weeks of treatment; conditions: for uterine wet weights: s.c., 3 weeks, E2 4 μg, GEN 10 mg, ALPHA 10 μg, BETA I 100 μg kg-1 b.wt d-1, vs OVX
Method: as §1, §7

PCNA mRNA = PCNA mRNA expression in the intestinal mucosa; conditions: OVX rats, FIG. 3B
Method: as §1

active caspase-3 = test: Western Blot analysis of active caspase-3 in ileal mucosa; conditions: for activation of caspase-3: OVX rats, s.c., 3 weeks, E2 4 μg, GEN 10 mg, ALPHA 10 μg, BETA I 100 μg kg-1 b.wt d-1
Method: as §1, §2, §3, §4, §5, §6

cytokeratin 18 (M 30) = test: Western Blot analysis of cytokeratin 18 cleavage (M30) in colon; conditions: OVX rats, BETA II at 5 μg
Method: as §1
Ileal mucosa and rectal colon were dissected from the animals and immediately stored in liquid nitrogen. […] Protein concentrations were determined by the method of Lowry (Dc Protein Assay, Bio-Rad). Equal amounts of sample (40 μg protein) were loaded on a Protean II ready Gel (Bio-Rad).
as §3, with “Germany). […]” for “Germany).”

PCNA [3] = test: Immunohistochemical staining of PCNA in colonic mucosa cells; conditions: OVX rats, immunohistochemistry of rectal colonic cross sections; BETA II at 5 μg/Kg
Method: as §1, §7, §8
Subsequently, endogenous peroxidases were blocked for 20 min. with 3% hydrogen peroxide and the slides were covered with a 0,25% Triton X-100 solution for 10 min. […]
Quantitative analysis was performed in complete crypts of normal mucosa. […]

intestinal mucosa = test: Doses effect of BETA II on the intestinal mucosa
Method: as §1
BETA II was tested at 5, 15 and 50 μg kg-1 b.wt d-1.
Ileal mucosa and rectal colon were dissected from the animals and immediately stored in liquid nitrogen. […] Protein concentrations were determined by the method of Lowry (Dc Protein Assay, Bio-Rad). Equal amounts of sample (40 μg protein) were loaded on a Protean II ready Gel (Bio-Rad). […]
as §6

[4] = OVX rats co-treated with BETA I 100 μg and ICI 3 mg kg-1 b.wt d-1
[5] = BETA I and BETA II at the same concentration (5 μg), pooled ileal tissue, FIG. 6

C=C[C@@]12CCc3cc(O)ccc3[C@H]1CC[C@@]1(C)[C@H]2CC[C@@H]1O [BETA I, 8β-vinyl-estra-1,3,5(10)-triene-3,17β-diol]
PCNA expression of intestinal mucosa cells, Western Blot densitometric evaluation (PCNA [1]; pooled ileal tissue): reduced
PCNA protein expression, immunostaining of ileal cross sections (PCNA [2]): significantly reduced
uterine wet weights (OVX rats): no significant uterus stimulation
PCNA mRNA Expression in the intestinal Mucosa (PCNA mRNA): diminished
activation of caspase-3 (active caspase-3; pooled ileal tissue): dramatically promoted

C[C@]12CC[C@@H]3c4ccc(O)cc4C[C@@H](CCCCCCCCC[S+]([O-])CCCC(F)(F)C(F)(F)F)[C@H]3[C@@H]1CC[C@@H]2O (some centres unmarked) [ICI]
effect of co-administration of ICI on anti-proliferative effect (PCNA) of BETA I (PCNA [1]; [4]): antogonization
effect of co-administration of ICI on pro-apoptotic effect (active caspase-3) of BETA I (active caspase-3; [4]): antogonization

C[C@]12CC[C@@H]3c4ccc(O)cc4CC[C@H]3[C@@H]1C[C@H]1OC(=O)C[C@]12O [ALPHA, 3,17-dihydroxy-19-nor-17α-pregna-1,3,5(10)-triene-21,16α-lactone]
PCNA expression of intestinal mucosa cells, Western Blot densitometric evaluation (PCNA [1]; pooled ileal tissue): elevation
PCNA protein expression, immunostaining of ileal cross sections (PCNA [2]): slightly induced
uterine wet weights (OVX rats): strongly increased
activation of caspase-3 (active caspase-3; pooled ileal tissue): moderately

C[C@]12CC[C@@H]3c4ccc(O)cc4CC[C@H]3[C@@H]1CC[C@@H]2O [E2, 17β-estradiol]
PCNA expression of intestinal mucosa cells, Western Blot densitometric evaluation (PCNA [1]; pooled ileal tissue): not affected
PCNA protein expression, immunostaining of ileal cross sections (PCNA [2]): slightly induced
cleavage of cytokeratin 18 (M 30) in colonic mucosa cells (cytokeratin 18 (M 30)): only marginally increased
uterine wet weights (OVX rats): strong stimulation
activation of caspase-3 (active caspase-3; pooled ileal tissue): remained on a low level

O=c1c(-c2ccc(O)cc2)coc2cc(O)cc(O)c12 [GEN, 4′,5,7-trihydroxyisoflavone]
PCNA expression of intestinal mucosa cells, Western Blot densitometric evaluation (PCNA [1]; pooled ileal tissue): reduced
PCNA protein expression, immunostaining of ileal cross sections (PCNA [2]): significantly reduced
uterine wet weights (OVX rats): faint, although significant increase
PCNA mRNA Expression in the intestinal Mucosa (PCNA mRNA): diminished
activation of caspase-3 (active caspase-3; pooled ileal tissue): moderately
PCNA expression in colonic mucosa cells (PCNA [3]): reduced

C=C[C@]12CC[C@]3(C)[C@@H](F)[C@H](O)C[C@H]3[C@@H]1CCc1cc(O)ccc12 [BETA II, 17β-Fluoro-9α-vinyl-estra-1,3,5(10)-triene-3,16α-diol]
activity relative to BETA I on effects regulating the intestinal homeostasis (intestinal mucosa; BETA II at 5 μg/kg vs BETA I): about 20 times
doses effect in the intestinal mucosa (intestinal mucosa; OVX rats, BETA II tested at 5, 15 and 50 μg kg-1 b.wt d-1): strongest effect at lowest tested dose of 5 μg/kg
down regulation of the expression of the proliferation marker PCNA compared with BETA I (PCNA [1]; [5]): improved effect
cleavage of cytokeratin 18 (M 30) in colonic mucosa cells (cytokeratin 18 (M 30)): dramatically induced; also recorded: significant stimulation
effect on the uterus weight (OVX rats; BETA II at 5 μg/kg): does not show any measurable effect
activation of the caspase-3 compared with BETA I (active caspase-3; [5]): at a higher level
PCNA expression in colonic mucosa cells (PCNA [3]): reduced
